Patent EP0000336A1, “N-benzylpyrimidinyl-amidines, process for their preparation and medicines containing them” (BASF Aktiengesellschaft, priority 1977, dated 1979)

System: Streptococcus agalactiae 7941
Experiment: Aronson sepsis model in mice, sulfonamide potentiation compared with trimethoprim
Assay type: in vivo
Details: female mice (groups of 30), lethal dose of Streptococcus agalactiae 7941; treated 2 h after infection with 300 mg 2-Sulfanilamido-4,5-dimethyloxazol + 60 mg test substance; survivors after 44 h divided by survivors of the group given 300 mg 2-Sulfanilamido-4,5-dimethyloxazol + 60 mg Trimethoprim
From the text: Verwendet man beispielsweise N-[4-Amino-5-(3,4,5-trimethoxybenzyl)-pyrimidin-2-yl]-acetamidsäureäthylester und Anilin als Ausgangsstoffe, so kann der Reaktionsverlauf durch folgendes Formelschema wiedergegeben werden: [drawing 7] 2um Wirksamkeitsnachweis wurden erfindungsgemäße Substanzen im Tierversuch am Modell der sogenannten Aronson-Sepsis, wobei mit Streptococcus agalactiae infiziert wird, geprüft und mit dem bekannten Trimethoprim verglichen. Hierzu wurden Gruppen von je 30 weiblichen Mäusen mit einer tödlichen Dosis von Streptococcus agalactiae 7941 infiziert und 2 Stunden nach der Infektion mit einer Mischung von 300 mg 2-Sulfanilamido-4,5-dimethyloxazol + 60 mg einer der erfindungsgemäßen Substanzen behandelt. Außer einer nicht behandelten Kontrollgruppe wurde eine zweite Gruppe mit dem als Referenzsubstanz dienenden Gemisch von 300 mg 2-Sulfanilamido-4,5-dimethyloxazol + 60 mg Trimethoprim behandelt. Nach 44 Stunden wurde die Zahl der überlebenden Tiere bestimmt und diese Zahl durch die Zahl der überlebenden aus der mit der Referenzsubstanz behandelten Gruppe dividiert. Der so erhaltene Zahlenwert (Trimethoprimfaktor) ist ein Maß für die Wirkung der erfindungsgemäßen Substanzen im Vergleich zum Trimethoprim. F = 2 bedeutet also, daß die Substanz doppelt so wirksam ist wie Trimethoprim. […]

COc1cc(Cc2cnc(N=C(C)N(C)C)nc2N)cc(OC)c1OC [Beispiel 1]
F (Trimethoprimfaktor): 1,2
